# Tests used:
# Rad51 multimers = target: T1, Rad51 multimers (Homo sapiens, UniProt Q06609); assay: Gel filtration of Rad51 multimers; type: biochemical; conditions: Rad51:compound molar ratio 1:10
# T1 sequence (Q06609 1-339): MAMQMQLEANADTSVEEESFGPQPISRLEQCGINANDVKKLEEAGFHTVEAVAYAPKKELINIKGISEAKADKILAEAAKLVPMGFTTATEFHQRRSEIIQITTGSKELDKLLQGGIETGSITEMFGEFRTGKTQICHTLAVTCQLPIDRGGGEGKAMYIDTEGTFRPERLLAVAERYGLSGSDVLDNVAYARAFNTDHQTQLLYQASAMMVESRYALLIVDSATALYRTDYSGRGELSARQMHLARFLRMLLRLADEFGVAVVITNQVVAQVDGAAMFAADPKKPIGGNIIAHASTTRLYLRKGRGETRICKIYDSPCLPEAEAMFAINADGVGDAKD
# Source text: If the IBR compound indeed occupies the hydrophobic pocket for the entrance of Phe1524 in BRCA2, the oligomerization of Rad51 should also be affected since they share the same binding region. […] Therefore, if IBR2 mimics the BRC hairpin structure, the Rad51 multimerization will also be inhibited by IBR2. We compared the gel filtration profile of Rad51 between with and without IBR2. […] The inhibition of the Rad51 and BRC repeat binding was further analyzed by SPR technology in a solution competition format as previously described (see e.g., Science 303, 844-848).
# Gel filtration: A mixture of Rad51 (3.2 μg) and small compound (molar ratio 1:10) was incubated for 15 minutes at 37° C., supplemented with buffer (50 mM triethanolamine-HCl [pH 7.5], 0.5 mM Mg (OAc)2, 1 mM dithiothreitol, 2 mM ATP, and 100 μg/ml BSA, total volume 20 μl) and incubated 15 more minutes. Then the mixture was loaded onto 2.4 ml Superdex 200 PC 3.2/30 columns (Pharmacia) equilibrated with the same buffer as described (Davies et al., 2001). Fractions (50 μl) were collected and 0.5 μl of each fraction was blotted onto PVDF membrane. Rad51 was detected using anti-Rad51 antibody (mAb 14B4).
# MCF-7 cells [1] = assay: Cell cycle analysis by flow cytometry (FACS); type: cell-based; conditions: 20 μM IBR2, time-dependent
# Experimental: To explore the mechanism of how IBR2 inhibits cancer cell growth, the inventors analyzed cell cycle progression of IBR2 treated MCF-7 cells by flow cytometry (FACS).
# Cell cycle analysis by flow cytometry: To analyze cell cycle distribution, […] MCF-7 cells were seeded in 10-cm dishes for 24 hours and treated with […] IBR2 for various times. Cells were then trypsinized and fixed with 70% ethanol (−20° C.) and stained for 30 minutes with propidium iodide (PI) staining solution (Yun et al., 2005) (50 μg/ml PI, 0.1% sodium citrate, 50 μg/ml RNase A, 0.03% NP-40 in PBS). Flow cytometry analysis was performed using a FACScalibur flow cytometer and cell cycle distribution was analyzed with CellQuest software (Beckton Dickison). 10,000 events were analyzed for each sample and the experiment was repeated twice.
# MCF-7 cells [2] = assay: S phase entry (BrdU) after nocodazole synchronization; type: cell-based; conditions: cells synchronized at M phase by nocodazole, re-plated
# Experimental: To test whether IBR2 treated cells are arrested at G1 and thus fail to enter S phase, MCF-7 cells were synchronized at M phase by nocodazole treatment and then re-plated to allow the entry to G1 phase. At different time points, cells were pulse labeled with BrdU to monitor S phase entry.
# (§1) Cell culture, cell synchronization, BrdU labeling and determination of mitotic index: Breast cancer cell lines and MEF cell lines were cultured in high-glucose Dulbecco modified Eagle medium containing 10% fetal bovine serum. MCF-10A cells were cultured as described previously (Debnath et al., 2003). Cell synchronization at M phase was achieved by treatment with 0.1 μg/ml nocodazole for 8 hours. Cell synchronization at G1/S boundary was achieved by treatment with 1 mM hydroxyurea for 17 hours, 9 hours of release and again with 1 mM hydroxyurea for 14 hours. For BrdU labeling, cells were incubated with BrdU for 30 minutes and fixed for BrdU immunostaining using a BrdU labeling kit (Amersham Biosciences). For determination of mitotic index, cells were fixed in 4% formaldehyde in PBS containing 0.1 μg/ml DAPI for 30 minutes at room temperature and examined by fluorescence microscopy. 500-1000 nuclei per sample were counted to determine the number of M phase cells which only includes prometaphase, metaphase, anaphase and telophase.
# MCF-7 cells [3] = assay: Fate of S phase cells after hydroxyurea synchronization (BrdU uptake, mitotic index, viable cells); type: cell-based
# Experimental: To further examine the fate of cells in S phase upon IBR2 treatment, MCF-7 cells were synchronized at G1/S transition by hydroxyurea treatment and then released to allow S phase entry by washing out the reagents. These cells were treated with 20 μM IBR2 and BrdU, and BrdU uptake was measured for DNA synthesis, as well as the mitotic index and the number of viable cells during an 18-hour period. […] Moreover, the number of mock treated cells doubled at the completion of M phase, while the number of IBR2 treated cells decreased to around 50%.
# as §1
# [4] = system: g-H2AX foci in MCF-7 cells; assay: IR-induced g-H2AX foci formation (immunostaining); type: cell-based; conditions: 20 μM IBR2, 20 Gy
# Experimental: Since interaction between BRCA2 and Rad51 appears to be crucial for the formation of IR-induced Rad51 foci, it was contemplated that IBR2 may mimic BRC repeats to disrupt the BRCA2-Rad51 interaction and to thereby diminish the IR-induced Rad51 foci formation. To test this possibility, the number of the MCF-7 cells that formed IR-induced Rad51 foci was measured after IBR2 treatment. […] To test whether this effect applies to other molecules involved in DSB repair, the inventors then examined the IR-induced foci formation of g-H2AX, which is histone H2AX phosphorylated at serine 139 by ATM for the recruitment of NBS1, 53BP and BRCA1, but not Rad51.
# Immunostaining Rad51 and g-H2AX foci: MCF-7 cells were treated with 20 μM IBR2 for 7 or 19 hours and then g-irradiated at 20 Gy. Cells were incubated for an additional 5 hours with 20 μM IBR2, then fixed with 4% paraformaldehyde in PBS containing 0.5% Triton X-100. The fixed cells were incubated with a-Rad51 antibody (mAb 1F5) or a-g-H2AX antibody (Upstate). Rad51 and g-H2AX foci positive cells were subsequently counted as described (Chen et al., 1999).
# CAPAN-1 = assay: Sensitivity of BRCA2-truncated pancreatic cancer cell line; type: cell-based; conditions: preliminary results
# Source text: The absence of BRCA2 in cells also appears to have a significant impact on Rad51 stability rendering them much more sensitive to IBR2 treatment. […] It is therefore contemplated that IBR2 may be particularly useful in treating cancer cells lacking functional BRCA2 (or having a reduced BRCA2 expression) albeit only a small fraction of cancer.
smiles,measurement,setting,value
"O=S(=O)(Cc1ccccc1)N1C=Cc2ccccc2C1c1c[nH]c2ccccc12 (stereo not shown) [IBR2, 2-(benzylsulfonyl)-1-(1H-indol-3-yl)-1,2-dihydroisoquinoline]",Rad51 multimerization (gel filtration elution profile),Rad51 multimers,dissociates Rad51 multimers
same,G1 fraction,MCF-7 cells [1],increased
same,S and G2/M fractions,MCF-7 cells [1],depleted
same,sub-G1 fraction (apoptotic cells),MCF-7 cells [1],significantly increased
same,S phase entry (BrdU positive cells),MCF-7 cells [2],completely arrested at G1 and failed to enter S phase
same,"DNA synthesis (BrdU uptake), S phase progression","MCF-7 cells [3]; 20 μM IBR2, 18-hour period",does not interfere with S phase progression
same,mitotic index (M phase entry),"MCF-7 cells [3]; 20 μM IBR2, 18-hour period",no or little IBR2 treated cells entered M phase
same,viability at 20 µM,"MCF-7 cells [3]; Homo sapiens, MCF7, 20 μM IBR2, at completion of M phase, read-out: number of viable cells",~50%
same,IR-induced g-H2AX foci formation,[4],no effect on g-H2AX foci formation
same,sensitivity of CAPAN-1 to IBR2,CAPAN-1,significant sensitivity

# — US8293764B2, “Compositions and methods for disruption of BRCA2-Rad51 interaction” (The Regents of the University of California, priority 2004, dated 2012)
